Patent US20070299072A1, “KV1.5 POTASSIUM CHANNEL INHIBITORS” (Wyeth, priority 2006, published 2007)

Each compound was assayed against T1, Kv1.5 (Homo sapiens, UniProt P22460) (assay: Kv1.5 Patch Clamp EP (whole cell patch clamp; single point at 1 μM and IC50)). Settings: single point at 1.0 μM, Kv1.5 stably over expressed in HEK or LTK- cells.
T1 construct: expressed in transfected cells; host or cells: HEK or LTK- cells
T1 sequence (P22460 whole entry): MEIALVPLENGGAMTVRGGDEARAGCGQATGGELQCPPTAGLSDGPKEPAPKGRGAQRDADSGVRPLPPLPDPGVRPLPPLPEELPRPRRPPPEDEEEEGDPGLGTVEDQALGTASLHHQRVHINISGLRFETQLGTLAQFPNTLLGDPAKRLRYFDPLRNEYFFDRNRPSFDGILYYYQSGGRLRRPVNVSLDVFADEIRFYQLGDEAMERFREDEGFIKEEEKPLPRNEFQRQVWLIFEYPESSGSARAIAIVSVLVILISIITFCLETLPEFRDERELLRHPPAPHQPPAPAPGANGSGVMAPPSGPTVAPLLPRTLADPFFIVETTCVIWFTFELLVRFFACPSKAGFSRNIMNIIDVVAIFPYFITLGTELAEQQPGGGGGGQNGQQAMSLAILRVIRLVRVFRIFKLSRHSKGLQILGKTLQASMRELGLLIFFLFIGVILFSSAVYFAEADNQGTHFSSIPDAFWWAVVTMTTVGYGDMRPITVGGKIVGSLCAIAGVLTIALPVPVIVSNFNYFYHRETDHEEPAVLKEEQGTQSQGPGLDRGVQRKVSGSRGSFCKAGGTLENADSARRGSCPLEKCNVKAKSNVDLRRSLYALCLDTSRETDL
Type: cell-based
Protocol: The external solution is standard Tyrodes solution. […] Inhibition was measured at the end of the 1 second pulses and expressed relative to controls. Initial Kv1.5 inhibition is estimated by single point determinations done at 1 μM.
With `COc1ccc(CCN2C(=O)C3(CCNCC3)N(C)C2c2ccc(C3CC3)cc2)cc1` (stereo not shown) [Compound 1, 2-(4-Cyclopropylphenyl)-3-[2-(4-methoxyphenyl)ethyl]-1-methyl-1,3,8-triaza-spiro[4.5]decan-4-one] the inhibition at 1 µM was 2%. `COc1ccc(CCN2C(=O)C3(CCNCC3)N(C)C2c2ccc(C(C)(C)C)cc2)cc1` (stereo not shown) [Compound 2, 2-(4-tert-Butylphenyl)-3-[2-(4-methoxyphenyl)ethyl]-1-methyl-1,3,8-triaza-spiro[4.5]decan-4-one] gave an inhibition at 1 µM of 6%. `COc1ccc(CCN2C(=O)C3(CCNCC3)N(C)C2c2ccc(OC(F)F)cc2)cc1` (stereo not shown) [Compound 3, 2-(4-Difluoromethoxyphenyl)-3-[2-(4-methoxyphenyl)ethyl]-1-methyl-1,3,8-triaza-spiro[4.5]decan-4-one] gave an inhibition at 1 µM of 6%. In the case of `COc1ccc(CCN2C(=O)C3(CCN(C(=O)NC(C)C)CC3)N(C)C2c2ccc(OC)cc2)cc1` (stereo not shown) [Compound 17, 2-(4-Methoxyphenyl)-3-[2-(4-methoxyphenyl)ethyl]-1-methyl-4-oxo-1,3,8-triaza-spiro[4.5]decane-8-carboxylic acid isopropylamide], the inhibition at 1 µM is reported as 31%. `COc1ccc(CCN2C(=O)C3(CCN(C(=O)N(C)C)CC3)N(C)C2c2ccc(C3CC3)cc2)cc1` (stereo not shown) [Compound 18, 2-(4-Cyclopropylphenyl)-3-[2-(4-methoxyphenyl)ethyl]-1-methyl-4-oxo-1,3,8-triaza-spiro[4.5]decane-8-carboxylic acid dimethylamide] was tested, and the inhibition at 1 µM was 10%. `COc1ccc(CCN2C(=O)C3(CCN(C(=O)OC(C)(C)C)CC3)N(C)C2c2ccc(C(C)(C)C)cc2)cc1` (stereo not shown) [Compound 38, tert-Butyl 2-(4-tert-butylphenyl)-3-[2-(4-methoxyphenyl)ethyl]-1-methyl-4-oxo-1,3,8-triazaspiro[4.5]decane-8-carboxylate] showed an inhibition at 1 µM of 28%. Compound `COc1ccc(CCN2C(=O)C3(CCN(C(=O)OC(C)(C)C)CC3)N(C)C2c2ccc(OC(F)F)cc2)cc1` (stereo not shown) [Compound 40, tert-Butyl 2-(4-difluoromethoxyphenyl)-3-[2-(4-methoxyphenyl)ethyl]-1-methyl-4-oxo-1,3,8-triazaspiro[4.5]decane-8-carboxylate] has an inhibition at 1 µM of 22%. Work on `COC(=O)N1CCC2(CC1)C(=O)N(CCc1ccc(OC)cc1)C(c1ccc(C3CC3)cc1)N2C` (stereo not shown) [Compound 41, Methyl 2-(4-cyclopropylphenyl)-3-[2-(4-methoxyphenyl)ethyl]-1-methyl-4-oxo-1,3,8-triazaspiro[4.5]decane-8-carboxylate] yielded an inhibition at 1 µM of 17%. In the case of `CN1C(c2ccc(C3CC3)cc2)N(CCCc2ccccc2)C(=O)C12CCNCC2` (stereo not shown) [Compound 43, 2-(4-Cyclopropylphenyl)-1-methyl-3-(3-phenylpropyl) —1,3,8-triazaspiro[4.5]-decan-4-one], the inhibition at 1 µM is reported as 23%. In the case of `COc1ccc(CCN2C(=O)C3(CCN(CC4CC4)CC3)N(C)C2c2ccc(C3CC3)cc2)cc1` (stereo not shown) [Compound 56, 8-Cyclopropylmethyl-2-(4-cyclopropylphenyl)-3-[2-(4-methoxyphenyl)ethyl]-1-methyl-1,3,8-triaza-spiro[4.5]decan-4-one], the inhibition at 1 µM is reported as 12%. With `COc1ccc(CCN2C(=O)C3(CCN(CC(N)=O)CC3)N(C)C2c2ccc(OC(F)F)cc2)cc1` (stereo not shown) [Compound 57, 2-{2-(4-Difluoromethoxyphenyl)-3-[2-(4-methoxyphenyl)ethyl]-1-methyl-4-oxo-1,3,8-triaza-spiro[4.5]dec-8-yl}acetamide] the inhibition at 1 µM was 25%. Compound `COc1ccc(CCN2C(=O)C3(CCN(C(=O)C(C)(C)N)CC3)N(C)C2c2ccc(C3CC3)cc2)cc1` (stereo not shown) [Compound 59, 8-(2-Amino-2-methylpropionyl)-2-(4-cyclopropylphenyl)-3-[2-(4-methoxyphenyl)ethyl]-1-methyl-1,3,8-triaza-spiro[4.5]decan-4-one] has an inhibition at 1 µM of 11%. With `COc1ccc(CCN2C(=O)C3(CCN(C(=O)OC(C)(C)C)CC3)NC2c2ccc(C(C)(C)C)cc2)cc1` (stereo not shown) [Compound 60, 2-(4-tert-Butylphenyl)-3-[2-(4-methoxyphenyl)ethyl]-4-oxo-1,3,8-triaza-spiro[4.5]decane-8-carboxylic acid tert-butyl ester] the inhibition at 1 µM was 32%. For `COc1ccc(CCN2C(=O)C3(CCN(C(=O)OC(C)(C)C)CC3)NC2c2ccc(C3CC3)cc2)cc1` (stereo not shown) [Compound 64, 2-(4-cyclopropylphenyl)-3-[2-(4-methoxyphenyl)ethyl]-4-oxo-1,3,8-triaza-spiro[4.5]decane-8-carboxylic acid tert-butyl ester], the inhibition at 1 µM was 36%. `COc1ccc(CCN2C(=O)C3(CCNCC3)N(C)C2Cc2ccc(C(C)(C)C)cc2)cc1` (stereo not shown) [Compound 69, 2-(4-tert-butylbenzyl)-3-[2-(4-methoxyphenyl)ethyl]-1-methyl-1,3,8-triazaspiro[4.5]decan-4-one] was tested, and the inhibition at 1 µM was 5%. `COc1ccc(CCN2C(=O)C3(CCN(C(=O)C(C)(C)NC(=O)OC(C)(C)C)CC3)N(C)C2c2ccc(C3CC3)cc2)cc1` (stereo not shown) [Compound 70, (2-{2-(4-cyclopropylphenyl)-3-[2-(4-methoxyphenyl)ethyl]-1-methyl-4-oxo-1,3,8-triaza-spiro[4.5]dec-8-yl}-1,1-dimethyl-2-oxo-ethyl)-carbamic acid tert-butyl ester] gave an inhibition at 1 µM of 42%. In the case of `COc1ccc(CCN2C(=O)C3(CCN(C(N)=O)CC3)N(C)C2c2ccc(OC)cc2)cc1` (stereo not shown) [Compound 72, 2-(4-methoxyphenyl)-3-[2-(4-methoxyphenyl)ethyl]-1-methyl-4-oxo-1,3,8-triazaspiro[4.5]decane-8-carboxamide], the inhibition at 1 µM is reported as 16%. In the case of `COc1ccc(CCN2C(=O)C3(CCN(C(=O)OC(C)(C)C)CC3)NC2c2ccc(OC)cc2)cc1` (stereo not shown) [Compound 73, tert-butyl 2-(4-methoxyphenyl)-3-[2-(4-methoxyphenyl)ethyl]-4-oxo-1,3,8-triazaspiro[4.5]decane-8-carboxylate], the inhibition at 1 µM is reported as 11%. `COc1ccc(CCN2C(=O)C3(CCN(C(N)=O)CC3)NC2c2ccc(C3CC3)cc2)cc1` (stereo not shown) [Compound 74, 2-(4-cyclopropylphenyl)-3-[2-(4-methoxyphenyl)ethyl]-4-oxo-1,3,8-triazaspiro[4.5]decane-8-carboxamide] gave an inhibition at 1 µM of 5%. In the case of `COc1ccc(CCN2C(=O)C3(CCNCC3)NC2c2ccc(C(C)(C)C)cc2)cc1` (stereo not shown) [Compound 76, 2-(4-tert-butylphenyl)-3-[2-(4-methoxyphenyl)ethyl]-1,3,8-triazaspiro[4.5]decan-4-one], the inhibition at 1 µM is reported as 5%. Compound `CN1C(c2ccc(C3CC3)cc2)N(CCc2ccc(OC(F)(F)F)cc2)C(=O)C12CCN(C(=O)OC(C)(C)C)CC2` (stereo not shown) [Compound 77, tert-butyl 2-(4-cyclopropylphenyl)-1-methyl-4-oxo-3-{2-[4-(trifluoromethoxy)phenyl]ethyl}-1,3,8-triazaspiro[4.5]decane-8-carboxylate] has an inhibition at 1 µM of 7%. `CN1C(c2ccc(C3CC3)cc2)N(CCc2ccc(OC(F)(F)F)cc2)C(=O)C12CCNCC2` (stereo not shown) [Compound 78, 2-(4-cyclopropylphenyl)-1-methyl-3-{2-[4-(trifluoromethoxy)phenyl]ethyl}-1,3,8-triazaspiro[4.5]decan-4-one] showed an inhibition at 1 µM of 16%. `COc1ccc(CCN2C(=O)C3(CCN(S(C)(=O)=O)CC3)NC2c2ccc(C3CC3)cc2)cc1` (stereo not shown) [Compound 79, 2-(4-cyclopropylphenyl)-3-[2-(4-methoxyphenyl)ethyl]-8-(methylsulfonyl)-1,3,8-triazaspiro[4.5]decan-4-one] gave an inhibition at 1 µM of 8%. `COc1ccc(CCN2C(=O)C3(CCN(C(=N)N)CC3)N(C)C2c2ccc(C3CC3)cc2)cc1` (stereo not shown) [Compound 84, 2-(4-cyclopropylphenyl)-3-[2-(4-methoxyphenyl)ethyl]-1-methyl-4-oxo-1,3,8-triazaspiro[4.5]decane-8-carboximidamide] showed an inhibition at 1 µM of 7%. `CN=C(N)N1CCC2(CC1)C(=O)N(CCc1ccc(OC)cc1)C(c1ccc(C3CC3)cc1)N2C` (stereo not shown) [Compound 86, 2-(4-cyclopropylphenyl)-3-[2-(4-methoxyphenyl)ethyl]-N′,1-dimethyl-4-oxo-1,3,8-triazaspiro[4.5]decane-8-carboximidamide] showed an inhibition at 1 µM of 4%. For `COc1ccc(C2NC3(CCN(C(=O)OC(C)(C)C)CC3)C(=O)N2CCCc2ccccc2)cc1` (stereo not shown) [Compound 87, tert-butyl 2-(4-methoxyphenyl)-4-oxo-3-(3-phenylpropyl)-1,3,8-triazaspiro[4.5]decane-8-carboxylate], the inhibition at 1 µM was 5%. `COc1ccc(CCN2C(=O)C3(CCN(C(=O)C4CC4)CC3)NC2c2ccc(C(C)(C)C)cc2)cc1` (stereo not shown) [Compound 88, 2-(4-tert-butylphenyl)-8-(cyclopropylcarbonyl)-3-[2-(4-methoxyphenyl)ethyl]-1,3,8-triazaspiro[4.5]decan-4-one] showed an inhibition at 1 µM of 13%. `COc1ccc(CCN2C(=O)C3(CCN(C(=O)[C@H]4CCCN4)CC3)N(C)C2c2ccc(C3CC3)cc2)cc1` (stereo partly drawn) [Compound 90, 2-(4-cyclopropylphenyl)-3-[2-(4-methoxyphenyl)ethyl]-1-methyl-8-D-prolyl-1,3,8-triazaspiro[4.5]decan-4-one] gave an inhibition at 1 µM of 8%. For `COc1ccc(CCN2C(=O)C3(CCNCC3)NC2c2ccc(C3CC3)cc2)cc1` (stereo not shown) [Compound 93, 2-(4-cyclopropylphenyl)-3-[2-(4-methoxyphenyl)ethyl]-1,3,8-triazaspiro[4.5]decan-4-one], the inhibition at 1 µM was 21%. `CCS(=O)(=O)N1CCC2(CC1)NC(c1ccc(C(C)(C)C)cc1)N(CCc1ccc(OC)cc1)C2=O` (stereo not shown) [Compound 94, 2-(4-tert-butylphenyl)-8-(ethylsulfonyl)-3-[2-(4-methoxyphenyl)ethyl]-1,3,8-triazaspiro[4.5]decan-4-one] gave an inhibition at 1 µM of 12%. For `COc1ccc(CCN2C(=O)C3(CCN(C(=O)OC(C)(C)C)CC3)N(C)C2Cc2ccc(C(C)(C)C)cc2)cc1` (stereo not shown) [Compound 97, tert-butyl 2-(4-tert-butylbenzyl)-3-[2-(4-methoxyphenyl)ethyl]-1-methyl-4-oxo-1,3,8-triazaspiro[4.5]decane-8-carboxylate], the inhibition at 1 µM was 16%.
